Tests used:
[1] = target: T1, GSTZ1 (Homo sapiens, UniProt O43708); experiment: GSTZ1 enzymatic activity assay (CNBF-GSH adduct absorbance at 420 nm); format: biochemical; parameters: dose or concentration left out as unconfirmed; settings: without UV irradiation, 10 mins, room temperature
T1 sequence (O43708 1-216): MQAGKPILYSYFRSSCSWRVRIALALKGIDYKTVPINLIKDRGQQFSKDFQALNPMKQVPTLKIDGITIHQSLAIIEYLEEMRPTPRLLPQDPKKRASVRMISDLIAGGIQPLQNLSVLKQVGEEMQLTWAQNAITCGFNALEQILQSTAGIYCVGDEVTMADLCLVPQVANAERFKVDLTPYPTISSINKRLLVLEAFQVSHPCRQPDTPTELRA
Method: The GSTZ1 activity assay with its substrate 4-Chloro-7-nitrobenzofurazan (CNBF) was read at 420 nm, which indicates the absorbance of CNBF-GSH adducts as previously reported^61. For experiments without UV irradiation, the reaction was started by adding DMSO or probe 17, 10 μg of recombinant GSTZ1 proteins, 0.2 mM of CNBF, and 2 mM of GSH at room temperature in a final volume of 100 μl HEPES buffer at pH 5.5. For UV irradiation experiments, GSTZ1 protein was incubated with DMSO or probe 17 for 10 minutes under UV light. Each reaction was performed as at least two biological replicates. Spectrophotometry measurements were recorded using an M5 Spectramax plate reader (Molecular devices). Data was processed and analyzed using Excel and GraphPad Prism 9.0. Optical density (OD) readouts of GSTZ1-catalyzed reactions were corrected by subtracting measurements of non-enzymatic reactions. Relative GSTZ1 activity was calculated by normalizing corrected OD readouts of GSTZ1-catalyzed reactions with probe 17 to that of GSTZ1-catalyzed reactions without probe 17. For assays with UV irradiation, recombinant GSTZ1 was produced in-house. To this end, 6His-GFP tag full length human GSTZ1 (Uniprot ID: 043708) with TEV protease cleavage site in pET28-a-(+) vector (GeneScript) was transformed into BL21 DE3 cells (Cat #EC0114, ThermoFisher). […]

[2] = tested on: H1792 cells harboring KRAS G12C; experiment: Cell viability assay (CellTiter-Glo) in H1792 cells; format: cell-based, human; settings: probe combined with sotorasib in H1792 cells, dose of 50 μM (FIG. 9D)
Method: Cells were seeded in Corning 384-well black walled/clear bottom microplates with a density of 1,000 cells/well and treated with indicated drugs and concentrations following cell attachment for 24 h. After 72 h or 96 h, as indicated, cell viability was evaluated with CellTiter-Glo (Promega, Madison, WI) according to manufacturer's recommendations. An M5 Spectramax plate reader (Molecular devices) was used to read the plates with 500 ms integration. Data was processed and analyzed using Excel and GraphPad Prism 9.0.

[3] = tested on: H1792 cells; experiment: In-gel fluorescence analysis of probe-labeled proteins after photocrosslinking in live H1792 cells; format: binding, human; settings: compared to vehicle
Method: Cells were grown in 10 cm dishes to ˜90% confluence at the time of treatment. Cells were carefully washed twice with Dulbecco's phosphate buffered saline (DPBS) and replenished with fresh serum-free RPMI 1640 media containing indicated probes ([…]), competitors, or DMSO. Without competitors, cells were incubated with probes for 30 min at 37° C. and then exposed to 365 nm UV light for 15 min on ice. With competitors, cells were pre-treated with competitors for 30 min and photoactivated for 15 min. Probes were then added to cells for an additional 30 min incubation. For no UV experiments, cells were incubated for 15 min under ambient light. Cells were harvested in cold DPBS and pellets were washed with cold DPBS (2 X). Pellets were either directly processed or kept frozen at −80° C. until use. Cells pellets were lysed for 30 min in cold DPBS (100-300 uL) per culture dish supplemented with 1% NP-40, followed by sonication (5 pulses, 4 s on, 20 s off, output setting=4). Lysates were centrifuged at 20,817×g for 20 min, and supernatant (soluble proteome) was used for further processing. Protein concentrations were determined using Bradford assays.
To 1 mg of protein, were added a mixture of TBTA (Tris((1-benzyl-4-triazolyl)methyl)amine, 60 μL/sample, 1.7 mM in 1:4 DMSO: t-BuOH stock), CuSO4 (20 μL/sample, 50 mM in H2O), TCEP (tris(2-carboxyethyl) phosphine, 20 μL/sample, 50 mM in DPBS, made fresh) and Biotin-Azide conjugate (10 μL/sample, 10 mM in DMSO stock). Each sample was rotated at room temperature for 2 h. To each resultant a cold 4:1 mixture (600 μL) of methanol (MeOH)/chloroform (CHCl3) was added followed by cold PBS (100 μL) on ice. The resulting cloudy mixture was centrifuged (5,000×g, 10 min, 4° C.) to fractionate the protein interface from the organic and aqueous solvent layers. A MeOH:CHCl3 (1:1, 1 mL, 2×) mixture was used to wash protein discs thoroughly. Protein discs were sonicated in cold 4:1 MeOH:CHCl3 (2 mL) mixture. The remaining precipitate was pelleted by centrifugation (5,000×g, 10 min, 4° C.). […] Gels were subjected to fluorescence imaging or Western Blotting.

GSTZ1 activity reduced by [1]: 68%
SMILES: C#CCCC1(CCC(=O)N2CCC(COc3nc4ccccc4nc3C)CC2)N=N1 [Probe 17, 3-(3-(but-3-yn-1-yl)-3H-diazirin-3-yl)-1-(4-(((3-methylquinoxalin-2-yl)oxy)methyl)piperidin-1-yl)propan-1-one]
sensitization of cells towards sotorasib [2]: significantly enhanced the sensitivity
proteome labeling by probe (in-gel fluorescence) [3]: efficiently labeled a wide range of proteins

From patent US20250313544A1, “INHIBITORS OF GLUTATHIONE S-TRANSFERASE ZETA 1 (GSTZ1) AND METHODS OF USE” (H. LEE MOFFITT CANCER CENTER AND RESEARCH INSTITUTE, INC., priority 2022, published 2025)
